Data taken from ChEMBL document CHEMBL5042535, “Structure-Based Design and Synthesis of N-Substituted 3-Amino-β-Carboline Derivatives as Potent αβ-Tubulin Degradation Agents” (J Med Chem, 2022).

Tests used:
Format in all cases: functional, cell-based
NCI-H460 = test: Antiproliferative activity against human NCI-H460 cells assessed as reduction in cell viability measured after 24 hrs by MTT assay; conditions: NCI-H460, 24 h
MCF7 = test: Antiproliferative activity against human MCF7 cells assessed as reduction in cell viability measured after 24 hrs by MTT assay; conditions: MCF7, 24 h
A2780S = test: Antiproliferative activity against human A2780S cells assessed as reduction in cell viability measured after 24 hrs by MTT assay
Raji = test: Antiproliferative activity against human Raji cells assessed as reduction in cell viability measured after 24 hrs by MTT assay
HeLa = test: Antiproliferative activity against human HeLa cells assessed as reduction in cell viability measured after 24 hrs by MTT assay

IC50 (NCI-H460) | IC50 (MCF7) | IC50 (A2780S) | IC50 (Raji) | IC50 (HeLa) | SMILES
> 500 nM | > 500 nM | > 500 nM | > 500 nM | > 500 nM | CCOc1cccc(CNc2cc3c(cn2)[nH]c2ccccc23)c1
> 500 nM | > 500 nM | > 500 nM | > 500 nM | > 500 nM | CCCNc1cc2c(cn1)[nH]c1ccccc12
> 500 nM | > 500 nM | > 500 nM | > 500 nM | > 500 nM | c1ccc2cc(CNc3cc4c(cn3)[nH]c3ccccc34)ccc2c1
> 500 nM | > 500 nM | > 500 nM | > 500 nM | > 500 nM | c1ccc(Oc2ccc(Oc3cccc(CNc4cc5c(cn4)[nH]c4ccccc45)c3)cc2)cc1
76 nM | 27 nM | 28 nM | 33 nM | 39 nM | Fc1ccc(Oc2cccc(CNc3cc4c(cn3)[nH]c3ccccc34)c2)cc1
74 nM | 19 nM | 43 nM | 59 nM | 63 nM | Clc1ccccc1Oc1cccc(CNc2cc3c(cn2)[nH]c2ccccc23)c1
> 500 nM | > 500 nM | > 500 nM | > 500 nM | > 500 nM | c1ccc(COc2cccc(CNc3cc4c(cn3)[nH]c3ccccc34)c2)cc1
> 500 nM | 397 nM | 92 nM | 242 nM | > 500 nM | c1ccc2c(c1)[nH]c1cnc(NC3CCCC3)cc12
> 500 nM | > 500 nM | > 500 nM | > 500 nM | > 500 nM | c1ccc2c(c1)[nH]c1cnc(NCC3CCCCC3)cc12
313 nM | 109 nM | 148 nM | 178 nM | 219 nM | COc1cccc(Oc2cccc(CNc3cc4c(cn3)[nH]c3ccccc34)c2)c1
> 500 nM | > 500 nM | > 500 nM | > 500 nM | > 500 nM | c1ccc(-c2cccc(CNc3cc4c(cn3)[nH]c3ccccc34)c2)cc1
342 nM | 71 nM | 93 nM | 73 nM | 66 nM | c1ccc2c(c1)[nH]c1cnc(NCc3ccoc3)cc12
> 500 nM | > 500 nM | > 500 nM | > 500 nM | > 500 nM | c1cc2ccc3cccc4c(CNc5cc6c(cn5)[nH]c5ccccc56)cc(c1)c2c34
> 500 nM | > 500 nM | > 500 nM | > 500 nM | > 500 nM | c1ccc2c(CNc3cc4c(cn3)[nH]c3ccccc34)c[nH]c2c1
> 500 nM | > 500 nM | > 500 nM | > 500 nM | > 500 nM | CCCCOc1cccc(CNc2cc3c(cn2)[nH]c2ccccc23)c1
> 500 nM | > 500 nM | > 500 nM | > 500 nM | > 500 nM | N#Cc1ccccc1Oc1cccc(CNc2cc3c(cn2)[nH]c2ccccc23)c1

Further lines, the compound ahead of its results:

SMILES | IC50 (NCI-H460) | IC50 (MCF7) | IC50 (A2780S) | IC50 (Raji) | IC50 (HeLa)
COc1ccc(Oc2cccc(CNc3cc4c(cn3)[nH]c3ccccc34)c2)cc1 | 67 nM | 33 nM | 12 nM | 20 nM | 19 nM
Cc1ccccc1Oc1cccc(CNc2cc3c(cn2)[nH]c2ccccc23)c1 | 52 nM | 59 nM | 62 nM | 32 nM | 57 nM
CCCOc1cccc(CNc2cc3c(cn2)[nH]c2ccccc23)c1 | > 500 nM | > 500 nM | > 500 nM | > 500 nM | > 500 nM
CC(=O)Nc1ccccc1Oc1cccc(CNc2cc3c(cn2)[nH]c2ccccc23)c1 | > 500 nM | > 500 nM | > 500 nM | > 500 nM | > 500 nM
c1cncc(Oc2cccc(CNc3cc4c(cn3)[nH]c3ccccc34)c2)c1 | 333 nM | 153 nM | 229 nM | 333 nM | 209 nM
c1ccc2ncc(CNc3cc4c(cn3)[nH]c3ccccc34)cc2c1 | > 500 nM | > 500 nM | > 500 nM | > 500 nM | > 500 nM
CCCCNc1cc2c(cn1)[nH]c1ccccc12 | 340 nM | 513 nM | 175 nM | 220 nM | > 500 nM
COc1ccccc1Oc1cccc(CNc2cc3c(cn2)[nH]c2ccccc23)c1 | > 500 nM | > 500 nM | > 500 nM | 500 nM | > 500 nM
COCCOc1cccc(CNc2cc3c(cn2)[nH]c2ccccc23)c1 | > 500 nM | > 500 nM | > 500 nM | > 500 nM | > 500 nM
c1ccc2c(c1)[nH]c1cnc(NCc3ccsc3)cc12 | 87 nM | 73 nM | 63 nM | 43 nM | 93 nM
c1cc(CNc2cc3c(cn2)[nH]c2ccccc23)cc(OCC2CC2)c1 | > 500 nM | > 500 nM | > 500 nM | > 500 nM | > 500 nM
Clc1ccc(Oc2cccc(CNc3cc4c(cn3)[nH]c3ccccc34)c2)cc1 | 222 nM | 48 nM | 73 nM | 74 nM | 45 nM
COc1ccc(COc2cccc(CNc3cc4c(cn3)[nH]c3ccccc34)c2)cc1 | > 500 nM | > 500 nM | > 500 nM | > 500 nM | > 500 nM
c1cc(CNc2cc3c(cn2)[nH]c2ccccc23)cc(OC2CCCC2)c1 | > 500 nM | > 500 nM | > 500 nM | > 500 nM | > 500 nM
Cc1ccc(Oc2cccc(CNc3cc4c(cn3)[nH]c3ccccc34)c2)cc1 | 165 nM | 39 nM | 55 nM | 57 nM | 56 nM
N#Cc1ccc(Oc2cccc(CNc3cc4c(cn3)[nH]c3ccccc34)c2)cc1 | 48 nM | 47 nM | 60 nM | 37 nM | 46 nM
Fc1cccc(Oc2cccc(CNc3cc4c(cn3)[nH]c3ccccc34)c2)c1 | 50 nM | 59 nM | 41 nM | 42 nM | 71 nM
c1cc(CNc2cc3c(cn2)[nH]c2ccccc23)cc(Oc2ccc3c(c2)OCCO3)c1 | > 500 nM | > 500 nM | > 500 nM | > 500 nM | > 500 nM
COc1ccc(CNc2cc3c(cn2)[nH]c2ccccc23)cn1 | > 500 nM | > 500 nM | > 500 nM | > 500 nM | > 500 nM
CC(C)(C)CC(C)(C)c1ccc(Oc2cccc(CNc3cc4c(cn3)[nH]c3ccccc34)c2)cc1 | > 500 nM | > 500 nM | > 500 nM | > 500 nM | > 500 nM
FC(F)(F)c1ccc(Oc2cccc(CNc3cc4c(cn3)[nH]c3ccccc34)c2)cc1 | 47 nM | 68 nM | 85 nM | 54 nM | 81 nM
COc1cc2c(c(OC)c1OC)-c1ccc(OC)c(=O)cc1[C@@H](NC(C)=O)CC2 [COLCHICINE] | 12 nM | – | – | 18 nM | 16 nM
